# Measurements reported in publication PMC4355590, “A Kinetic Study of the Main Guaco Metabolites Using Syrup Formulation and the Identification of an Alternative Route of Coumarin Metabolism in Humans” (PLoS ONE, 2015).
# “And” between values parts separate entries of the source, which are not always exact repeats. Equal values may be shown once. Read-outs that look alike come from different tables or passages of the source. Marks after values point to notes of the source that are not given here.
# How the values were obtained:
# [1] = Pharmacokinetic study: volunteers orally received 60 mL of guaco syrup spiked with 1500 mg of COU, plasma by HPLC-MS/MS; assay type: in vivo, human
# Description: The weight ranged from 63 to 88 kg and the height from 1.65 to 1.80 m. The volunteers were submitted to the medical consultations and clinical analyses before their participation in the study. Only healthy volunteers (normal values of blood pressure and renal, hepatic, biochemical and hematological parameters) were eligible to participate in the study. […] The volunteers were informed about all the procedures and possible risks related to the study. All the volunteers provided written informed consent to participate in the study. […] All the volunteers fasted for 8 h prior to the administration of guaco syrup and blood collection. […] The anticoagulant used was tetrasodium edetate. […] The pharmacokinetic analysis was performed using a non-compartmental model, considering an extravascular administration route and using WinNonlin Professional software, version 5.3. The relationships among the areas under the curves (r areas = AUC0-t/AUC0-inf), were used to confirm the suitability of the experimental design. […] All the frozen (-40°C) human plasma samples from the volunteers were thawed at room temperature, and a 200 μL aliquot was transferred into 2 mL plastic centrifuge tubes. The analytes were extracted as follows. The 200 μL aliquots of thawed samples were spiked with 50 μL of acetonitrile/water (70:30 v/v) and 50 μL of the working IS solution to obtain a final concentration of 500 ng/mL of 6-methylcoumarin. The spiked samples were vortexed for 2 min, and a 1.5 mL aliquot of TBME was added to the tube. The samples were vortexed for 2 min and then submitted to centrifugation for 10 min (14000 rpm, -5°C). A 1.2 mL aliquot of each sample supernatant was transferred to a new plastic centrifuge tube, and TBME was evaporated at 40°C in a sample concentrator (CentriVap Labconco, Kansas City, EUA). The remaining samples were resuspended in 200 μL of acetonitrile/water (70:30 v/v) using a vortex mixer for 3 min. The 200 μL aliquots of the thawed samples were spiked with 50 μL of acetonitrile/water (70:30 v/v) and 50 μL of the working IS solution to obtain a final concentration of 500 ng/mL of prednisone (IS) and 1000 ng/mL of isoferulic acid (IS). The spiked samples were vortexed for 2 min, and a 1.5 mL of acetonitrile was added to the tube. The samples were vortexed for 2 min and then were submitted to centrifugation for 10 min (14000 rpm, -5°C). Each sample supernatant was transferred to a new plastic centrifuge tube, and acetonitrile was evaporated in a sample concentrator (40°C). The samples were resuspended in 200 μL of acetonitrile/water (70:30 v/v) using a vortex mixer for 3 min. […] The HPLC was connected to a CTC Sample Manager (Model 2777, Waters Corporation, Milford, USA) that was operated at room temperature. Acetonitrile and methanol were used as wash solvents. The HPLC system was coupled to an Applied Biosystems MDS Sciex API 3200 Triple Quadrupole Mass Spectrometer (Toronto, Canada), equipped with a Harvard 22 Dual Model syringe pump (Harvard Apparatus, South Natick, USA) and an electrospray ionization (ESI) source. […] For the positive ion mode, the mobile phase consisted of acetonitrile/water/formic acid (70:30:0.05 v/v/v) at an elution rate of 200 μL/min in an isocratic system. For the negative ion mode, the mobile phase consisted of a gradient of water (A) and acetonitrile/water 95:5 v/v (B), both containing 1 mM ammonium formate. The flow rate was maintained at 400 μL/min, and the gradient profile was as follows: t0-1.0min: […] A = 70%; and t5.1-9.0min: A = 70%. […] The injection volume was 20 μL, and the column temperature was maintained at 25°C for positive ion mode and at 35°C for negative ion mode. Data acquisition was performed with the MS Workstation by Analyst software, version 1.4.2 (ABSciex). Quantification was performed in Multiple Reaction Monitoring (MRM) mode, maintaining the dwell time at 300 and 400 ms for the positive and negative ion modes, respectively. […]
# [2] = Initial screening of bioavailability: 60 mL of guaco syrup orally; assay type: in vivo, human; conditions: 60 mL guaco syrup (17.6 mg COU, 1.1 mg OCA, 8.9 mg KAU), up to 600 min
# Method: All the volunteers fasted for 8 h prior to the administration of guaco syrup and blood collection. […] The anticoagulant used was tetrasodium edetate. […] The pharmacokinetic analysis was performed using a non-compartmental model, considering an extravascular administration route and using WinNonlin Professional software, version 5.3. The relationships among the areas under the curves (r areas = AUC0-t/AUC0-inf), were used to confirm the suitability of the experimental design.
# [3] = Stability in human plasma: short-term, freeze-thaw and long-term; assay type: in vitro ADME; conditions: for Mean recovery: n = 8, ± SD
# Method: The samples were vortexed for 2 min and then were kept at room temperature for 8 h. Afterward, the samples were spiked with 50 μL of IS solution and were vortexed (2 min) and submitted to the extraction procedures. The short-term stability was evaluated by comparing the mean recovery of the analytes and the IS obtained from stored samples with the mean values obtained with freshly prepared samples, at same concentration levels.
# (§1) Freeze-thawed, post-preparative and long-term stability assay samples were prepared and evaluated similar to the short-term stability samples. However, the freeze thawing assay was assessed after undergoing three freeze-thaw cycles (one freeze-thaw cycle per day on three consecutive days) and post-preparative assay, maintaining the extracted samples for 24 hours in the Sample Manager (20°C, transparent vials). The long-term stability of human plasma stored at -40°C was assessed at the end of the study (60 days).
# [4] = Post-preparative stability of extracted samples; assay type: physicochemical; conditions: for Mean recovery: post-preparative: extracted samples 24 hours at 20°C, n = 8, ± SD; for RE: post-preparative
# Method: as §1
# [5] = both sexes, human, plasma, po, 1500 mg, human plasma, 60 mL guaco syrup spiked with 1500 mg coumarin, n = 5, mean ± S.D.
# [6] = both sexes, human, plasma, po, 1500 mg, human plasma, 60 mL guaco syrup spiked with 1500 mg coumarin, n = 5, mean ± S.D., read-out: Cmax
# [7] = both sexes, human plasma, oral, 60 mL guaco syrup spiked with 1500 mg coumarin, n = 5, mean ± S.D.
# [8] = human plasma, oral, 60 mL guaco syrup spiked with 1500 mg coumarin, n = 5, mean ± S.D.
# [9] = Long-term: plasma at -40°C, 60 days, high level (1250.0, 750.0, 750.0, 500.0 ng/mL)
# [10] = Long-term: plasma at -40°C, 60 days, low level (50.0, 12.5, 25.0, 10.0 ng/mL)
# [11] = Short-term: plasma at room temperature for 8 h, high level (1250.0, 750.0, 750.0, 500.0 ng/mL)
# [12] = Short-term: plasma at room temperature for 8 h, low level (50.0, 12.5, 25.0, 10.0 ng/mL)
# [13] = three freeze–thaw cycles, plasma, high level (1250.0, 750.0, 750.0, 500.0 ng/mL)
# [14] = three freeze–thaw cycles, plasma, low level (50.0, 12.5, 25.0, 10.0 ng/mL)
# [15] = high level (1250.0, 750.0, 750.0, 500.0 ng/mL)
# [16] = low level (50.0, 12.5, 25.0, 10.0 ng/mL)
"half-life [1, 5] [h]","Cmax [1, 6] [ng/mL]","AUC(0-inf) [1, 7] [ng·h/mL]","AUC(0-t) [1, 7] [ng·h/mL]","Tmax [1, 7] [h]","r areas (AUC0-t/AUC0-inf) [1, 8]",plasma levels after guaco syrup without spiking [2],"Mean recovery [3, 9] [ng/mL]","Mean recovery [3, 10] [ng/mL]","RE ([3]; Long-term, low level) [%]","Mean recovery [3, 11] [ng/mL]","Mean recovery [3, 12] [ng/mL]","RE ([3]; Short-term, high level) [%]","RE ([3]; Short-term, low level) [%]","RE ([3]; freeze–thaw cycles, high level) [%]","RE ([3]; freeze–thaw cycles, low level) [%]","Mean recovery [3, 13] [ng/mL]","Mean recovery [3, 14] [ng/mL]","Mean recovery [4, 15] [ng/mL]","Mean recovery [4, 16] [ng/mL]",SMILES,other results
~1,85 ± 40.1,134 ± 58,126 ± 54,1.4 ± 0.68,0.95 ± 0.05,did not provide sufficient levels,674.4 ± 69.7,11.7 ± 1.1,-6.19,738.1 ± 8.4,11.7 ± 0.6,-1.59,-6.24,-4.69,-7.29,714.8 ± 24.9,11.6 ± 0.6,776.4 ± 18.7,11.5 ± 0.7,"O=c1ccc2ccc(O)cc2o1 [7-HCOU, 7-hydroxycoumarin]","Kel (elimination rate constant) [1, 8]: 0.91 ± 0.59 h⁻¹; T1/2 [1, 8]: 1.16 ± 0.82 ^a h; RE ([3]; Long-term, high level): -10.08%; RE ([4]; high level): 3.52%; RE ([4]; low level): -7.73%"
~4,735,1460 ± 547,1340 ± 515,0.93 ± 0.57,0.92 ± 0.03,did not provide sufficient levels,1265.7 ± 99.2,45.1 ± 3.6,-9.71,1205.5 ± 31.5,52.4 ± 1.7,-3.56,4.81,4.61,7.62,1307.7 ± 40.7,53.8 ± 2.7,1281.3 ± 44.2,47.6 ± 3.4,"O=c1ccc2ccccc2o1 [COU, 1,2 benzopyrone]","clearance ([1]; both sexes, human, plasma, oral, 1500 mg, Cl/f multiplied by the bioavailability 0.034 of ref 32, read-out: estimated clearance (Cl = 1148.0 x 0.034) (converted)): 651 mL/min; Vd ([1]; both sexes, human, plasma, oral, 1500 mg, Vd/f multiplied by the bioavailability 0.034 of ref 32, read-out: estimated volume of distribution (Vd = 6733.0 x 0.034)): 229 L; Vd/F ([1]; both sexes, human plasma, oral, 60 mL guaco syrup spiked with 1500 mg coumarin, n = 5, mean ± S.D., read-out: Vd/f (apparent volume of distribution)): 6730 ± 3280 L; Cl/f (apparent clearance) [1, 8]: 1148.0 L/h and 1148.0 ± 411.0 L/h; Cmax [1, 8]: 735.46 ± 252.29 ng/mL; RE ([3]; Long-term, high level): 1.26%; RE ([4]; high level): 5.00%; RE ([4]; low level): -9.55%"
~3,231 ± 187,518 ± 299,465 ± 299,1.45 ± 0.84,0.87 ± 0.08,did not provide sufficient levels,606.3 ± 26.8,22.5 ± 0.4,-10.20,750.6 ± 29.0,25.2 ± 0.4,0.07,0.79,-2.79,-8.32,729.0 ± 41.7,22.9 ± 1.1,727.4 ± 34.5,22.7 ± 0.6,"O=C(O)/C=C/c1ccccc1O [OCA, o-coumaric acid]","T1/2 [1, 8]: 3.50 ± 0.83 ^b h; RE ([4]; high level): -3.01%; RE ([4]; low level): -2.32%"
